Here are results for 1 compound from patent US20240180895A1, “USE OF KAPPA OPIOID RECEPTOR AGONISTS TO TREAT CARDIOVASCULAR DISEASE” (Board of Supervisors of Louisiana State University and …, priority 2021, published 2024).

One data set deals with hemodialysis patients. The settings on record: nearly 4000 hemodialysis patients (Kozono, Yoshitani, et al., 2018); cited from earlier work.
The next data set deals with Sprague-Dawley rats. Description: Reversal of oral furosemide diuretic resistance by oral nalfurafine (FIG. 17). It is filed as in vivo, rat. The note with it: nalfurafine 150 μg/kg oral added from day 7. Here is the method: Male Sprague-Dawley rats were placed in individual metabolic cages in a room with 12-hour automatic light on/off control and allowed tap water and rodent chow ad libitum. Over the next two (2) days (control period), rats were administered vehicle (5% NaOH; 1 M PBS) orally (gavage) in the morning (9:00 am) and afternoon (2:00 pm) and urine was collected for 5-hours after the first oral treatment. […] This was repeated for 8 consecutive days (experimental period).

Data set [1] has as its system conscious Sprague-Dawley rats. Description: Acute cardiovascular and renal excretory studies with ICV or IV norBNI pretreatment (Example 4). It is filed as in vivo, rat. The note with it: for Total urine output: difelikefalin 10 μg/kg or nalfurafine 5 μg/kg IV, 90 min; for Urine osmolality / Urine potassium concentration [K+] / Urine sodium concentration [Na+]: total 90-min urine. The protocol: Male Sprague-Dawley rats (Envigo Labs, Indianapolis, IN) were individually housed, allowed tap water and standard rodent diet ad libitum, and kept under a 12-hour light-dark cycle. Rats used in these experiments weighed between 300 and 350 grams and were randomly assigned to experimental groups. All procedures were conducted in accordance with the National Institutes of Health guidelines for the care and use of animals and approved by the Louisiana State University Health Sciences Center Institutional Animal Care and Use Committee.
Aseptic technique was adhered to for all surgeries and detailed surgical methods were followed as previously described.^14 Briefly, 3-5 days before experimentation, rats requiring central ventricle access for administration of drug/vehicle into the brain were anesthetized with ketamine and xylazine and a stainless-steel cannula was stereotaxically implanted into the right lateral cerebral ventricle.^14
On the morning of the experiment, rats were anesthetized and maintained with inhaled 2% isoflurane, and polyethylene catheters were surgically placed into the left femoral artery, left femoral vein, and urinary bladder.^15.16 Following surgery, rats were placed in an elevated restrainer for recovery and collection of urine from an indwelling bladder catheter.^15 After completion of experimental protocols, rats were anesthetized with isoflurane and decapitated.
During stabilization of cardiovascular and renal excretory parameters, rats received an isotonic saline infusion (55 μl/min), which lasted throughout the duration of the experiment. To record mean arterial pressure (MAP) and heart rate (HR), arterial catheters were connected to a pressure transducer (MLT0670, ADInstruments, Sydney, Australia), which was connected to Powerlab 8/30 (ADInstruments) and visualized using LabChart software (v8.1.5; ADInstruments). After one hour of recovery from surgery, rats were pretreated with the KOR antagonist norBNI or isotonic saline vehicle through either an intracerebroventricular (ICV) catheter or intravenous (IV) catheter. […] Next, drug or vehicle (isotonic saline) was injected into the femoral vein and urine samples were collected every 10 minutes during a 90-minute experimental period. The following drug concentrations were used: nalfurafine 5 μg/kg, difelikefalin 10 μg/kg, norBNI 30 mg/kg (IV), norBNI 1 μg/5 μL (ICV). All groups are n=6. Urine sodium and potassium were measured using a flame photometer (model 943; Instrumentation Laboratories, Lexington, MA). Urine volume was measured gravimetrically, and urine osmolality was measured using a vapor pressure osmometer (model 5600; WESCOR, Logan, UT).
All results are expressed as mean±SEM. For determining statistically different changes at time points within a treatment group, means were compared to the control value using 2-way ANOVA with repeated measures and a post hoc Dunnett test following confirmation of a significant F value. For statistically different changes at individual time points between treatment groups, mean values were compared using 2-way ANOVA with repeated measures and a post hoc Sidak test following confirmation of a significant/value. For means between groups for total urine output, urine sodium concentration, urine potassium concentration, and urine osmolality, a Student/test was used. Statistical significance was characterized as P<0.05 and statistics were performed on Prism 7.05 software (GraphPad Software, Inc, San Diego, CA).

Setting [2] is: ICV norBNI (1 μg/5 μL) pretreatment.
The mark [3] stands for this setting: IV norBNI (30 mg/kg) pretreatment.

Take `CN(C(=O)/C=C/c1ccoc1)[C@@H]1CC[C@@]2(O)[C@H]3Cc4ccc(O)c5c4[C@@]2(CCN3CC2CC2)[C@H]1O5` [nalfurafine, Nalfurafine]: the Dysphoric adverse effects result in the data set on hemodialysis patients is “did not cause the typical dysphoric adverse effects”. Moreover, the “Effect on established diuretic resistance to furosemide” value in the data set with Sprague-Dawley rats is recorded as “able to treat or rescue the diuretic resistance”. Besides, the “Effect on MAP” value in data set [1] (setting [2]) was “prevented the decrease in MAP”. Also, the Total urine output in data set [1] (setting [2]) is 4.72 ± 0.41 mL; in data set [1] (ICV vehicle (5 μL) pretreatment) it was 8.37 ± 0.40 mL; in data set [1] (setting [3]), 5.03 ± 0.39 mL; in data set [1] (IV vehicle (2 cc/kg) pretreatment), 9.37 ± 0.42 mL. In addition, the Urine osmolality in data set [1] (setting [2]) amounted to 358.5 ± 30.6 mmol/kg; in data set [1] (ICV vehicle pretreatment), 164 ± 8.09 mmol/kg; in data set [1] (setting [3]), 439.2 ± 24.02 mmol/kg; in data set [1] (IV vehicle pretreatment), 148.7 ± 4.4 mmol/kg. Further, the “Urine potassium concentration [K+]” value turned out to be 12.77±3.99 μeq/mL in data set [1] (setting [2]), 8.19±2.15 μeq/mL in data set [1] (ICV vehicle pretreatment), 10.94±1.09 μeq/mL in data set [1] (setting [3]) and 5.49±0.68 μeq/mL in data set [1] (IV vehicle pretreatment). In addition, the “Urine sodium concentration [Na+]” value in data set [1] (setting [2]) was found to be 82.33±7.74 μeq/mL; in data set [1] (ICV vehicle pretreatment) it was 37.78±5.35 μeq/mL; in data set [1] (setting [3]), 109.1±7.85 μeq/mL; in data set [1] (IV vehicle pretreatment), 32.56±3.05 μeq/mL. Further, the results for the “Effect on HR” value in data set [1] (ICV vehicle pretreatment), in data set [1] (setting [3]) and in data set [1] (IV vehicle pretreatment) were “slight but statistically significant increase in HR”, “did not produce any change in HR” and “did not produce any change in HR”, respectively. Further, the “MAP peak Δ” value in data set [1] (ICV vehicle pretreatment, peak at 60 min (difelikefalin), 50 min (nalfurafine)) was −6 mmHg; in data set [1] (IV norBNI (30 mg/kg) pretreatment, 80-minute peak for difelikefalin) it was “abolished”.
